Laboratory results as given in ChEMBL document CHEMBL1201862, “PubChem BioAssay data set” (2004).
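All cell lines were grown in 96-well plates and treated with compound for 48 hours. Abbreviation: GI50, concentration required for 50% inhibition of growth.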 Activity calls are given as the source filed them. No stated cut-off is given here; in the data, active = GI50 up to about 1.1 µM and inactive = higher.

Columns and labels:
Experiment in all cases: growth of human tumour cells (NCI), 48 h
[1] = test system: A498
[2] = test system: A549
[3] = test system: CAKI-1
[4] = test system: CCRF-CEM
[5] = test system: DU-145
[6] = test system: HCC 2998
[7] = test system: HCT-116
[8] = test system: M14
[9] = test system: MCF7
[10] = test system: MDA-MB-231
[11] = test system: MDA-MB-435
[12] = test system: NCI/ADR-RES
[13] = test system: OVCAR-4
[14] = test system: RPMI-8226
[15] = test system: SK-MEL-28
[16] = test system: SK-MEL-2
[17] = test system: SK-MEL-5
[18] = test system: SNB-75
[19] = test system: SR
[20] = test system: UO-31

SMILES	GI50 [1]	GI50 [2]	GI50 [3]	GI50 [4]	GI50 [5]	GI50 [6]	GI50 [7]	GI50 [8]	GI50 [9]	GI50 [10]	GI50 [11]	GI50 [12]	GI50 [13]	GI50 [14]	GI50 [15]	GI50 [16]	GI50 [17]	GI50 [18]	GI50 [19]	GI50 [20]
N#CC1CCCC2SC(F)(F)C(F)(F)C12 (stereo not given)	> 100 µM (inactive)	> 100 µM (inactive)	> 100 µM (inactive)	26.4 µM (inactive)	> 100 µM (inactive)	> 100 µM (inactive)	> 100 µM (inactive)	> 100 µM (inactive)	> 100 µM (inactive)	> 100 µM (inactive)	> 100 µM (inactive)	> 100 µM (inactive)	> 100 µM (inactive)	> 46.8 µM (inactive)	> 100 µM (inactive)	> 100 µM (inactive)	> 100 µM (inactive)	> 88.3 µM (inactive)	23.8 µM (inactive)	> 100 µM (inactive)
N#Cc1nc(C#N)n(S(=O)(=O)c2ccccc2)c1NS(=O)(=O)c1ccccc1	> 100 µM (inactive)	> 100 µM (inactive)	> 37.8 µM (inactive)	> 100 µM (inactive)	> 100 µM (inactive)	> 100 µM (inactive)	> 100 µM (inactive)	> 100 µM (inactive)	> 100 µM (inactive)	> 100 µM (inactive)	> 100 µM (inactive)	> 100 µM (inactive)	> 100 µM (inactive)	> 100 µM (inactive)	> 100 µM (inactive)	> 31.6 µM (inactive)	> 100 µM (inactive)	> 65.3 µM (inactive)	> 38.1 µM (inactive)	27 µM (inactive)
COc1ccc(-n2nnc(C(N)=O)c2O)cc1	> 100 µM (inactive)	> 100 µM (inactive)	> 100 µM (inactive)	> 100 µM (inactive)	> 100 µM (inactive)	> 100 µM (inactive)	> 100 µM (inactive)	> 100 µM (inactive)	> 100 µM (inactive)	> 100 µM (inactive)	> 100 µM (inactive)	> 100 µM (inactive)	> 100 µM (inactive)	> 100 µM (inactive)	> 100 µM (inactive)	> 100 µM (inactive)	> 100 µM (inactive)	> 100 µM (inactive)	> 100 µM (inactive)	32.3 µM (inactive)
CC1(C)CC[C@]2(C(=O)O)CC[C@]3(C)[C@H](C(=O)C=C4[C@@]5(C)C=C(C#N)C(=O)C(C)(C)[C@@H]5CC[C@]43C)[C@@H]2C1 [BARDOXOLONE]	0.391 µM (active)	1.16 µM (inactive)	0.687 µM (active)	0.22 µM (active)	0.508 µM (active)	< 0.0412 µM (active)	0.294 µM (active)	0.769 µM (active)	0.265 µM (active)	1.31 µM (inactive)	0.537 µM (active)	0.993 µM (active)	1.03 µM (active)	0.0214 µM (active)	0.16 µM (active)	1 µM (active)	0.258 µM (active)	0.45 µM (active)	0.0561 µM (active)	1.06 µM (active)
Cc1cc(Cl)ccc1Nc1sc(C(=O)c2cc3cc(Cl)ccc3o2)c(N)c1C#N	5.6 µM (inactive)	5.98 µM (inactive)	25.1 µM (inactive)	> 27.1 µM (inactive)	18.8 µM (inactive)	3.1 µM (inactive)	18.4 µM (inactive)	9.57 µM (inactive)	8.38 µM (inactive)	4.99 µM (inactive)	8.71 µM (inactive)	1.82 µM (inactive)	3.59 µM (inactive)	2.27 µM (inactive)	> 28.1 µM (inactive)	> 44.9 µM (inactive)	3.99 µM (inactive)	3.48 µM (inactive)	> 100 µM (inactive)	34.1 µM (inactive)
N#CC(c1ccc(O)cc1)N1CCN(C(C#N)c2ccc(O)cc2)CC1 (stereo not given)	> 100 µM (inactive)	99.3 µM (inactive)	> 100 µM (inactive)	> 100 µM (inactive)	> 51.8 µM (inactive)	> 100 µM (inactive)	> 100 µM (inactive)	> 100 µM (inactive)	> 100 µM (inactive)	21.9 µM (inactive)	> 100 µM (inactive)	40.8 µM (inactive)	> 100 µM (inactive)	> 100 µM (inactive)	67.3 µM (inactive)	68.2 µM (inactive)	> 100 µM (inactive)	19 µM (inactive)	> 100 µM (inactive)	> 100 µM (inactive)
